Article PMC6835763, “Influence of Short Cationic Lipopeptides with Fatty Acids of Different Chain Lengths on Bacterial Biofilms Formed on Polystyrene and Hydrogel Surfaces” (Pharmaceutics, 2019)
Values after ≈ are worked out from the molar mass of the structure shown. Where two headings read alike, the source gives them in different places. Where a SMILES comes first, the peptide text is derived from it. Bridges are numbered along the chain shown (N, C = ends). Roman numbers before positions name the chains, in order. The star is where a group is joined. Palmitoyl = CCCCCCCCCCCCCCCC(=O)*; Myristoyl = CCCCCCCCCCCCCC(=O)*; Lauroyl = CCCCCCCCCCCC(=O)*

Legend:
Type in all cases: cell-based
gram-positive strains = experiment: MIC, broth microdilution, range over strains; conditions: range over the gram-positive strains, liquid culture
Experimental: (§1) The MICs of synthetic lipopeptides and conventional antimicrobials were determined using the broth microdilution method according to the Clinical and Laboratory Standard Institute (CLSI) guidelines on reference strains. […] The PS were incubated under aerobic conditions at 37 °C for 18 h. The MIC (μg/mL) was assumed as the lowest concentration of the compound that inhibited the growth of the microorganisms. All experiments were performed in triplicate and included the growth and sterility controls.

[1] = tested on: Pseudomonas aeruginosa ATCC 9027
Experimental: as §1, with “The reference strains of gram-positive and gram-negative bacteria (Table 2) were obtained from the Polish Collection of Microorganisms (Polish Academy of Science, Wroclaw, Poland). The microorganisms were cultured in Muller Hinton Broth II (MHB II, Biocorp, Warsaw, Poland), overnight, at 37 °C. The MICs” for “The MICs”

[2] = tested on: Escherichia coli ATCC 25922
Experimental: as §1, with “The reference strains of gram-positive and gram-negative bacteria (Table 2) were obtained from the Polish Collection of Microorganisms (Polish Academy of Science, Wroclaw, Poland). The microorganisms were cultured in Muller Hinton Broth II (MHB II, Biocorp, Warsaw, Poland), overnight, at 37 °C. The MICs” for “The MICs”

[3] = tested on: Staphylococcus aureus ATCC 25923
Experimental: as §1, with “The reference strains of gram-positive and gram-negative bacteria (Table 2) were obtained from the Polish Collection of Microorganisms (Polish Academy of Science, Wroclaw, Poland). The microorganisms were cultured in Muller Hinton Broth II (MHB II, Biocorp, Warsaw, Poland), overnight, at 37 °C. The MICs” for “The MICs”

[4] = tested on: Staphylococcus epidermidis ATCC 14990
Experimental: as §1, with “The reference strains of gram-positive and gram-negative bacteria (Table 2) were obtained from the Polish Collection of Microorganisms (Polish Academy of Science, Wroclaw, Poland). The microorganisms were cultured in Muller Hinton Broth II (MHB II, Biocorp, Warsaw, Poland), overnight, at 37 °C. The MICs” for “The MICs”

[5] = tested on: Enterococcus faecalis ATCC 29212
Experimental: as §1, with “The reference strains of gram-positive and gram-negative bacteria (Table 2) were obtained from the Polish Collection of Microorganisms (Polish Academy of Science, Wroclaw, Poland). The microorganisms were cultured in Muller Hinton Broth II (MHB II, Biocorp, Warsaw, Poland), overnight, at 37 °C. The MICs” for “The MICs”

[6] = tested on: Proteus mirabilis PCM 543
Experimental: as §1, with “The reference strains of gram-positive and gram-negative bacteria (Table 2) were obtained from the Polish Collection of Microorganisms (Polish Academy of Science, Wroclaw, Poland). The microorganisms were cultured in Muller Hinton Broth II (MHB II, Biocorp, Warsaw, Poland), overnight, at 37 °C. The MICs” for “The MICs”

[7] = MHB II, ca. 5 × 10^6 CFU/mL, 96-well PS, 1–512 μg/mL, 37 °C, 18 h, triplicate

## CCCCCCCCCCCC(=O)N[C@@H](CCCCN)C(=O)N[C@@H](CCCCN)C(=O)N[C@@H](CSSC[C@H](NC(=O)[C@H](CCCCN)NC(=O)[C@H](CCCCN)NC(=O)CCCCCCCCCCC)C(N)=O)C(N)=O [Lipopeptide 1, C12-KKC-NH2] (I: Lauroyl-Lys-Lys-Cys-NH2 / II: Lauroyl-Lys-Lys-Cys-NH2; disulfide I:3-II:3)
gram-positive strains
  concentrations inhibiting growth of gram-positive strains (MIC range): 2 to 8 µg/mL
[1]; ATCC 9027, 18 h
  MIC P. aeruginosa: 32 µg/mL (≈ 28.7 µM)
[2]; ATCC 25922, 18 h
  MIC E. coli: 16 µg/mL (≈ 14.3 µM)
[3]; ATCC 25923, 18 h
  MIC S. aureus: 8 µg/mL (≈ 7.17 µM)
[4]; ATCC 14990, 18 h
  MIC S. epidermidis: 2 µg/mL (≈ 1.79 µM)
[5]; ATCC 29212, 18 h
  MIC E. faecalis: 4 µg/mL (≈ 3.59 µM)

## CCCCCCCCCCCCCC(=O)N[C@@H](CCCCN)C(=O)N[C@@H](CCCCN)C(=O)N[C@@H](CSSC[C@H](NC(=O)[C@H](CCCCN)NC(=O)[C@H](CCCCN)NC(=O)CCCCCCCCCCCCC)C(N)=O)C(N)=O [Lipopeptide 3, C14-KKC-NH2] (I: Myristoyl-Lys-Lys-Cys-NH2 / II: Myristoyl-Lys-Lys-Cys-NH2; disulfide I:3-II:3)
[1]; ATCC 9027, 18 h
  MIC P. aeruginosa: 128 µg/mL (≈ 109 µM)
[6]; PCM 543, 18 h
  MIC P. mirabilis: 512 µg/mL (≈ 437 µM)
[2]; ATCC 25922, 18 h
  MIC E. coli: 64 µg/mL (≈ 54.6 µM)
[3]; ATCC 25923, 18 h
  MIC S. aureus: 32 µg/mL (≈ 27.3 µM)
[4]; ATCC 14990, 18 h
  MIC S. epidermidis: 4 µg/mL (≈ 3.41 µM)
[5]; ATCC 29212, 18 h
  MIC E. faecalis: 16 µg/mL (≈ 13.7 µM)

## CCCCCCCCCCCCCC(=O)N[C@@H](CCCCN)C(=O)N[C@@H](CCCNC(=N)N)C(N)=O [Lipopeptide 4, C14-KR-NH2] (Myristoyl-Lys-Arg-NH2)
[1]; ATCC 9027, 18 h
  MIC P. aeruginosa: 128 µg/mL (≈ 250 µM)
[6]; PCM 543, 18 h
  MIC P. mirabilis: 512 µg/mL (≈ 1000 µM)
[2]; ATCC 25922, 18 h
  MIC E. coli: 32 µg/mL (≈ 62.5 µM)
[3]; ATCC 25923, 18 h
  MIC S. aureus: 32 µg/mL (≈ 62.5 µM)
[4]; ATCC 14990, 18 h
  MIC S. epidermidis: 4 µg/mL (≈ 7.82 µM)
[5]; ATCC 29212, 18 h
  MIC E. faecalis: 32 µg/mL (≈ 62.5 µM)

## CCCCCCCCCCCCCCCC(=O)N[C@@H](CCCCN)C(=O)NCC(=O)N[C@@H](CCCCN)C(N)=O [Lipopeptide 5, C16-KGK-NH2] (Palmitoyl-Lys-Gly-Lys-NH2)
[1]; ATCC 9027, 18 h
  MIC P. aeruginosa: 256 µg/mL (≈ 450 µM)
[6]; PCM 543, 18 h
  MIC P. mirabilis: 512 µg/mL (≈ 900 µM)
[2]; ATCC 25922, 18 h
  MIC E. coli: 16 µg/mL (≈ 28.1 µM)
[3]; ATCC 25923, 18 h
  MIC S. aureus: 64 µg/mL (≈ 113 µM)
[4]; ATCC 14990, 18 h
  MIC S. epidermidis: 32 µg/mL (≈ 56.3 µM)
[5]; ATCC 29212, 18 h
  MIC E. faecalis: 32 µg/mL (≈ 56.3 µM)

## (C10)2-KKKK-NH2 [Lipopeptide 9]
[1]; [7]
  MIC P. aeruginosa: 16 µg/mL
[6]; [7]
  MIC P. mirabilis: 512 µg/mL
[2]; [7]
  MIC E. coli: 16 µg/mL
[3]; [7]
  MIC S. aureus: 8 µg/mL
[4]; [7]
  MIC S. epidermidis: 2 µg/mL
[5]; [7]
  MIC E. faecalis: 16 µg/mL

## CCCCCCCCCCCCCCCC(=O)N[C@@H](CCCCN)C(=O)N[C@@H](CCCCN)C(=O)N[C@@H](CCCCN)C(N)=O [Lipopeptide 7, C16-KKK-NH2]
[1]; ATCC 9027, 18 h
  MIC P. aeruginosa: 64 µg/mL (≈ 100 µM)
[6]; PCM 543, 18 h
  MIC P. mirabilis: 256 µg/mL (≈ 400 µM)
[2]; ATCC 25922, 18 h
  MIC E. coli: 32 µg/mL (≈ 50 µM)
[3]; ATCC 25923, 18 h
  MIC S. aureus: 64 µg/mL (≈ 100 µM)
[4]; ATCC 14990, 18 h
  MIC S. epidermidis: 16 µg/mL (≈ 25 µM)
[5]; ATCC 29212, 18 h
  MIC E. faecalis: 16 µg/mL (≈ 25 µM)

## CCCCCCCCCCCCCCCC(=O)N[C@@H](CCCCN)C(=O)N[C@@H](CCCNC(=N)N)C(N)=O [Lipopeptide 8, C16-KR-NH2] (Palmitoyl-Lys-Arg-NH2)
[1]; ATCC 9027, 18 h
  MIC P. aeruginosa: 128 µg/mL (≈ 237 µM)
[6]; PCM 543, 18 h
  MIC P. mirabilis: 512 µg/mL (≈ 948 µM)
[2]; ATCC 25922, 18 h
  MIC E. coli: 64 µg/mL (≈ 119 µM)
[3]; ATCC 25923, 18 h
  MIC S. aureus: 32 µg/mL (≈ 59.3 µM)
[4]; ATCC 14990, 18 h
  MIC S. epidermidis: 8 µg/mL (≈ 14.8 µM)
[5]; ATCC 29212, 18 h
  MIC E. faecalis: 64 µg/mL (≈ 119 µM)
